The values below come from paper PMC6009913, “N-aryl 2-aryloxyacetamides as a new class of fatty acid amide hydrolase (FAAH) inhibitors” (Journal of Enzyme Inhibition and Medicinal Chemistry, 2017).

Series [1] has as its target T1, FAAH (Rattus norvegicus, UniProt P97612).
T1 construct: using rat brain homogenates as enzyme source; from tissue; host or cells: rat brain homogenate
T1 sequence (P97612 1-579): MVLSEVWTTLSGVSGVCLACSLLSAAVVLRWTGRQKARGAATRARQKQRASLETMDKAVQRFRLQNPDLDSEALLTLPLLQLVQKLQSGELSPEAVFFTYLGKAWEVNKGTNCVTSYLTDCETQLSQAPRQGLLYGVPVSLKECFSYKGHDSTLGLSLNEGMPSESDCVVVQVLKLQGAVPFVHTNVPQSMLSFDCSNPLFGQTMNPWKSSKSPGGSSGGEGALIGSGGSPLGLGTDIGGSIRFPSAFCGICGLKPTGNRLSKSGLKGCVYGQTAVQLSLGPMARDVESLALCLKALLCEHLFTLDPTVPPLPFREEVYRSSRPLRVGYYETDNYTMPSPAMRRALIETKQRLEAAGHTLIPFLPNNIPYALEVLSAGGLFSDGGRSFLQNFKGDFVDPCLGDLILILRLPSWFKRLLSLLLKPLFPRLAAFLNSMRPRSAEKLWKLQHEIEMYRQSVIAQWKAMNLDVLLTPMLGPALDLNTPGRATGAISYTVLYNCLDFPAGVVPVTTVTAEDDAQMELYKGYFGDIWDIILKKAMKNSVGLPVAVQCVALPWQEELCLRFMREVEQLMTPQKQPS
The series is described as follows: FAAH inhibition, hydrolysis of 0.5 µM [3H]AEA in rat brain homogenates. It is filed as biochemical. The conditions noted are these: for Maximum inhibition: maximal attainable inhibition according to preferred curve fit, mean ± standard error; for effect of pre-incubation on inhibition curve (time dependence): 60 vs. 0 min of pre-incubation.

Series [2] relates to FAAH. The arrangement: method as in PMID 21502526. The conditions noted are these: reported; cited from earlier work.
A short description of series [3]: thermodynamic aqueous solubility in phosphate-buffered saline. It is filed as physicochemical. The conditions noted are these: aqueous buffer, thermodynamic from solid; phosphate-buffered saline 10 mM, pH 7.48, 37 °C.
Series [4] deals with FAAH. Also noted: method as in PMID 12461523. The note with it: previously reported data; cited from earlier work.
Setting [5] is: 60-min pre-incubation with enzyme.

The structures appear in SMILES notation. ≈ marks a conversion by molar mass, not a printed value. Where two headings read alike, the source gives them in different places.

For `O=C(COc1ccc(-c2ccccc2)cc1)Nc1ccccc1-c1nc2ncccc2o1` [4a, 2-([1,1′-Biphenyl]-4-yloxy)-N-(2-(oxazolo[4,5-b]pyridin-2-yl)phenyl)acetamide], the Maximum inhibition on FAAH [1] (no pre-incubation) came out at 3 ± 5%.

For `O=C(COc1ccc(C2CCCCC2)cc1)Nc1ccccc1-c1nc2ncccc2o1` [4b, 2-(4-Cyclohexylphenoxy)-N-(2-(oxazolo[4,5-b]pyridin-2-yl)phenyl)acetamide], the Maximum inhibition at FAAH [1] (no pre-incubation) is −1 ± 3%.

The term IC50 denotes the concentration at which inhibition is half-maximal. For `CCn1c(=O)n([C@H]2CCCN(c3nccc(-c4cc5ccccc5o4)n3)C2)c2ccccc21` [crystal ligand, 1-{(3S)-1-[4–(1-benzofuran-2-yl)pyrimidin-2-yl]piperidin-3-yl}-3-ethyl-1,3-dihydro-2H-benzimidazol-2-one], the IC50 in the series with FAAH [2] is 100 nM.

As for `CCC/C=C/COCC(=O)Nc1ccc(-c2nc3ncccc3o2)cc1` [4k, (E)-2-(hex-2-en-1-yloxy)-N-(4-(oxazolo[4,5-b]pyridin-2-yl)phenyl)acetamide], the Maximum inhibition on FAAH [1] (no pre-incubation) amounted to 46 ± 9%.

`CCC/C=C/COCC(=O)Nc1ccc(-c2nc3ncccc3[nH]2)cc1` [4t, (E)-N-(4-(1H-imidazo[4,5-b]pyridin-2-yl)phenyl)-2-(hex-2-en-1-yloxy)acetamide]: the IC50 against FAAH [1] (setting [5]) amounted to 43000 nM; at FAAH [1] (rat brain homogenates, 0.5 µM [3H]AEA, no pre-incubation, pooled from three independent experiments, 5–7 concentrations), 64000 nM. For the same compound, the “effect of pre-incubation on inhibition curve (time dependence)” value on FAAH [1] is recorded as “A small degree of time-dependent inhibition”. For the same compound, the Maximum inhibition at FAAH [1] (no pre-incubation) turned out to be 100%.

With `CCC/C=C/COCC(=O)Nc1cccc(-c2nc3ncccc3o2)c1` [4h, (E)-2-(hex-2-en-1-yloxy)-N-(3-(oxazolo[4,5-b]pyridin-2-yl)phenyl)acetamide], the Maximum inhibition at FAAH [1] (no pre-incubation) stood at 100%.

As to `CCC/C=C/COCC(=O)Nc1ccccc1-c1nc2ncccc2[nH]1` [4n, (E)-N-(2–(1H-imidazo[4,5-b]pyridin-2-yl)phenyl)-2-(hex-2-en-1-yloxy)acetamide], the Maximum inhibition on FAAH [1] (no pre-incubation) is listed as 100%.

Usually thermodynamic solubility stands for the concentration in solution at equilibrium with solid. For `O=C(COc1ccc(-c2ccccc2)cc1)Nc1cccc(-c2nc3ncccc3o2)c1` [4f, 2-([1,1′-Biphenyl]-4-yloxy)-N-(3-(oxazolo[4,5-b]pyridin-2-yl)phenyl)acetamide], the solubility (thermodynamic) in series [3] was 3 to 20 µM (≈ 1.26 to 8.43 µg/mL).

With `NC(=O)c1cccc(-c2cccc(OC(=O)NC3CCCCC3)c2)c1` [URB597], in the series with FAAH [4], the IC50 is 4.6 ± 1.6 nM.

In the case of `O=C(COc1ccc(C2CCCCC2)cc1)Nc1cccc(-c2nc3ncccc3o2)c1` [4g, 2-(4-Cyclohexylphenoxy)-N-(3-(oxazolo[4,5-b]pyridin-2-yl)phenyl)acetamide], the Maximum inhibition on FAAH [1] (no pre-incubation) worked out at 100%.

Take `CCC/C=C/COCC(=O)Nc1ccccc1-c1nc2ncccc2o1` [4c, (E)-2-(hex-2-en-1-yloxy)-N-(2-(oxazolo[4,5-b]pyridin-2-yl)phenyl)acetamide]: the Maximum inhibition at FAAH [1] (no pre-incubation) was determined as 7 ± 3%.

On FAAH [1] (setting [5]), `O=C(COc1ccc(-c2ccccc2)cc1)Nc1ccc(-c2nc3ncccc3o2)cc1` [4i, 2-([1,1′-Biphenyl]-4-yloxy)-N-(4-(oxazolo[4,5-b]pyridin-2-yl)phenyl)acetamide] displayed an IC50 of 280 nM and a maximum observed inhibition of 39 ± 2%. Also, the Maximum inhibition at FAAH [1] (no pre-incubation) came out at 75 ± 4%. The compound further registered a solubility (thermodynamic) in series [3] of 18 µM (≈ 7.59 µg/mL).

Turning to `O=C(COc1ccccc1)Nc1cccc(-c2nc3ncccc3o2)c1` [4d, N-(3-(oxazolo[4,5-b]pyridin-2-yl)phenyl)-2-phenoxyacetamide], on FAAH [1] (no pre-incubation), the Maximum inhibition amounted to 100%.

In the case of `CCC/C=C/COCC(=O)Nc1cccc(-c2nc3ncccc3[nH]2)c1` [4q, (E)-N-(3-(1H-imidazo[4,5-b]pyridin-2-yl)phenyl)-2-(hex-2-en-1-yloxy)acetamide], at FAAH [1] (no pre-incubation), the Maximum inhibition is 100%.

With `O=C(COc1ccc(C2CCCCC2)cc1)Nc1cccc(-c2nc3ncccc3[nH]2)c1` [4p, N-(3-(1H-imidazo[4,5-b]pyridin-2-yl)phenyl)-2-(4-cyclohexylphenoxy)acetamide], at FAAH [1] (no pre-incubation), the Maximum inhibition amounted to 100%.

With `CC(C)c1ccc(OCC(=O)Nc2cccc(-c3nc4ncccc4o3)c2)cc1` [4e, 2-(4-Isopropylphenoxy)-N-(3-(oxazolo[4,5-b]pyridin-2-yl)phenyl)acetamide], the Maximum inhibition on FAAH [1] (no pre-incubation) was determined as 100%.

For the compound `O=C(COc1ccc(C2CCCCC2)cc1)Nc1ccc(-c2nc3ncccc3[nH]2)cc1` [4s, N-(4-(1H-imidazo[4,5-b]pyridin-2-yl)phenyl)-2-(4-cyclohexylphenoxy)acetamide], the “effect of pre-incubation on inhibition curve (time dependence)” value at FAAH [1] is reported as “essentially identical inhibition curves”. The Maximum inhibition at FAAH [1] (no pre-incubation) was found to be 62 ± 4%. This compound returned a thermodynamic solubility in series [3] of 3 µM (≈ 1.28 µg/mL).

For the compound `O=C(COc1ccc(-c2ccccc2)cc1)Nc1ccc(-c2nc3ncccc3[nH]2)cc1` [4r, N-(4-(1H-imidazo[4,5-b]pyridin-2-yl)phenyl)-2-([1,1'-biphenyl]-4-yloxy)acetamide], the “effect of pre-incubation on inhibition curve (time dependence)” value on FAAH [1] is “reduced maximal inhibition”. For the same compound, the Maximum inhibition on FAAH [1] (no pre-incubation) is 80 ± 2%. The thermodynamic solubility in series [3] was found to be 20 µM (≈ 8.41 µg/mL).

In the case of `O=C(COc1ccc(C2CCCCC2)cc1)Nc1ccc(-c2nc3ncccc3o2)cc1` [4j, 2-(4-Cyclohexylphenoxy)-N-(4-(oxazolo[4,5-b]pyridin-2-yl)phenyl)acetamide], at FAAH [1] (no pre-incubation), the Maximum inhibition was found to be 19 ± 10%.

As for `O=C(COc1ccc(-c2ccccc2)cc1)Nc1cccc(-c2nc3ncccc3[nH]2)c1` [4o, N-(3-(1H-imidazo[4,5-b]pyridin-2-yl)phenyl)-2-([1,1'-biphenyl]-4-yloxy)acetamide], the Maximum inhibition on FAAH [1] (no pre-incubation) was determined as 71 ± 9%.

Turning to `O=C(COc1ccc(-c2ccccc2)cc1)Nc1ccccc1-c1nc2ncccc2[nH]1` [4l, N-(2-(1H-imidazo[4,5-b]pyridin-2-yl)phenyl)-2-([1,1'-biphenyl]-4-yloxy)acetamide], the “effect of pre-incubation on inhibition curve (time dependence)” value at FAAH [1] is “reduced maximal inhibition”. Further, the Maximum inhibition on FAAH [1] (no pre-incubation) came to 70 ± 2%.

Consider `O=C(COc1ccc(C2CCCCC2)cc1)Nc1ccccc1-c1nc2ncccc2[nH]1` [4m, N-(2-(1H-imidazo[4,5-b]pyridin-2-yl)phenyl)-2-(4-cyclohexylphenoxy)acetamide], for which, at FAAH [1], the “effect of pre-incubation on inhibition curve (time dependence)” value is reported as “reduced maximal inhibition”. Further, the Maximum inhibition on FAAH [1] (no pre-incubation) stood at 82 ± 3%. This compound displayed a thermodynamic solubility in series [3] of 3 to 20 µM (≈ 1.28 to 8.53 µg/mL).
